Results on 16 molecules are retold here after patent US8318762B2, “Pyrazolospiroketone acetyl-CoA carboxylase inhibitors” (Pfizer Inc., priority 2008, dated 2012).

Broadly, the IC50 is the midpoint of a concentration-inhibition curve.

One assay deals with T1, recombinant human ACC2 (Homo sapiens, UniProt O00763).
T1 construct: a full length Cytomax clone of ACC2 was purchased from Cambridge Bioscience Limited; made in house; host or cells: CHO cells (tetracycline induction, pcDNA5 FRT TO-TOPO); purified on a Softlink Soft Release Avidin column
The assay is described as follows: Measurement of human ACC2 inhibition (recombinant hACC2 Transcreener ADP detection FP assay). In kind it is biochemical. Particulars: recombinant hACC2 transcreener assay; read-out: rhACC2 IC50. The gist of the method:
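Purified hACC2 from tetracycline-induced CHO cells (avidin-column eluate) was run in 50 mM HEPES pH7.5, 5 mM MgCl2, 5 mM citrate, 2 mM DTT, 0.5 mg/mL BSA with 30 μM acetyl-CoA, 50 μM ATP and 8 mM KHCO3. Reaction lasted 1 hour at room temperature; ADP was detected by Transcreener FP after another 1 hour.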

For the next assay, the target named is rat liver ACC (Rattus norvegicus, UniProt P11497). In kind it is biochemical. Particulars: rat liver ACC radio enzymatic assay. The method, then:
[1] Preparation of rat liver ACC. Rat liver ACC was obtained from rat liver based upon standard procedures such as those described by Thampy and Wakil (J. Biol. Chem. 260: 6318-6323; 1985) using the following method.
Male CD rats weighing 150-200 g were fasted for 18-24 hours and then fed a high sucrose diet (AIN-76A rodent diet; Cat # D10001, Research Diets Inc., New Brunswick, N.J.), for 3 days at which time they were sacrificed by CO2 asphyxiation. The livers were removed, rinsed in ice-cold phosphate-buffered saline (PBS), and homogenized in 5 volumes of homogenization buffer (50 mM potassium phosphate, pH 7.5, 10 mM EDTA, 10 mM 2-mercaptoethanol, 2 mM benzamidine, 0.2 mM phenylmethylsulfonylfluoride (PMSF), 5 mg/L each leupeptin, aprotinin, and antitrypsin) in a Waring® blender for 1 minute at 4° C. All subsequent operations were carried out at 4° C. The homogenate has made 3% with respect to polyethylene glycol (PEG) by the addition of 50% PEG solution and centrifuged at 20,000×g for 15 minutes. The resulting supernatant was adjusted to 5% PEG with the addition of 50% PEG solution and stirred for 5 minutes. The pellet (contains ACC activity) was collected by centrifugation at 20,000×g for 20 minutes, rinsed with ice-cold doubly distilled water to remove excess PEG and re-suspended in one-fourth the original homogenate volume with homogenization buffer. Ammonium sulfate (200 g/liter) was slowly added with stirring. After 45 minutes the enzyme is collected by centrifugation for 30 minutes at 20,000×g, re-suspended in 10 mL of 50 mM HEPES, pH7.5, 0.1 mM DTT, 1.0 mM EDTA, and 10% glycerol and desalted on a Sephadex™ G-25 column (2.5 cm×50 cm) (Pharmacia, Piscataway N.J. now GE Healthcare) equilibrated with the same buffer. The desalted enzyme preparation was stored in aliquots at −70° C. Immediately prior to use, frozen rat liver ACC aliquots were thawed, diluted to 500 μg/mL in buffer containing 50 mM HEPES, pH7.5, 10 mM MgCl2, 10 mM tripotassium citrate, 2.0 mM dithiothreitol (DTT), and 0.75 mg/mL fatty acid-free bovine serum albumin (BSA) and pre-incubated at 37° C. for 30 minutes.
[2] Measurement of rat liver ACC inhibition. For measurement of ACC activity and assessment of ACC inhibition, test compounds were dissolved in dimethylsulfoxide (DMSO) and 1 μL aliquots were added to a clear bottom, 96-well plates (Perkin-Elmer PN#1450-514). Control wells contain 1 μL of DMSO alone or 1 μL of high inhibition compound. The enzyme obtained from rat liver as described above was activated in Enzyme buffer at 37° C. for 30 minutes prior to addition to compound plate. All wells receive 75 μL of activated enzyme (1.33×) in a buffer containing 50 mM HEPES, pH7.5, 7.5 mM MgCl2 7.5 mM tripotassium citrate, 2 mM DTT, 50 mg/mL BSA. The activated enzyme was pre-incubated with the cmpd for 10 minute prior to initiating the reaction through the addition of 25 μL of substrate solution containing 50 mM HEPES, pH7.5, 7.5 mM MgCl2 7.5 mM tripotassium citrate, 2 mM DTT, 50 mg/mL BSA, 120 μM acetyl-CoA, 8.0 mM ATP, 38.4 mM KHCO3, and 1.6 mM NaH[^14C]O3 ([…]). The final substrate concentrations in the reaction were 30 μM Acetyl-CoA, 9.6 mM KHCO3, 0.4 mM NaH[^14C]O3, and 2 mM ATP. The reaction was terminated after 10 mins by the addition of 25 μL 3N HCl and the plates were dried at 50° C. for a minimum 20 hrs. 30 μL of water was added to the dried plate and mixed for 5 minutes. 95 μL of Optiphase Supermix liquid scintillation fluid (Perkin Elmer, Waltham, Mass.) was added and the plates are mixed for 20 minutes. Incorporation of ^14C into MCoA was measured using a Wallac Trilux 1450 Microbeta LSC luminescence counter.

In assay [1] the test system is malonyl-CoA levels in muscle tissue. Kind of assay: Acute in vivo assessment of ACC inhibition: malonyl-CoA levels in muscle tissue (quadriceps). On the set-up: species or system male Sprague-Dawley Rats. The settings on record: relative to chow-fed vehicle control group, % decrease +/- SEM. On the procedure:
(§1) The ACC inhibitory activity of the compound of the present invention can be confirmed in vivo by evaluation of their ability to reduce malonyl-CoA levels in liver and muscle tissue from treated animals.
(§2) Measurement of malonyl-CoA production inhibition in experimental animals. In this method, male Sprague-Dawley Rats, maintained on standard chow and water ad libitum (225-275 g), were randomized prior to the study. Animals were either fed, or fasted for 18 hours prior to the beginning of the experiment. Two hours into the light cycle the animals were orally dosed with a volume of 5 mL/kg, (0.5% methyl cellulose; vehicle) or with the appropriate compound (prepared in vehicle). Fed vehicle controls were included to determine baseline tissue malonyl-CoA levels while fasted animals were included to determine the effect fasting had on malonyl-CoA levels. One hour after compound administration the animals were asphyxiated with CO2 and the tissues were removed. Specifically, blood was collected by cardiac puncture and placed into BD Microtainer tubes containing EDTA (BD Biosciences, NJ), mixed, and placed on ice. Plasma was used to determine drug exposure. Liver and quadriceps were removed, immediately freeze-clamped, wrapped in foil and stored in liquid nitrogen.
(§3) Tissues were pulverized under liquid N2 to ensure uniformity in sampling. Malonyl-CoA was extracted from the tissue (150-200 mg) with 5 volumes 10% […] in Lysing Matrix A (MP Biomedicals, PN 6910) in a FastPrep FP120 (Thermo Scientific, speed=5.5; for 45 seconds). The supernatant containing malonyl-CoA was removed from the cell debris after centrifugation at 15000×g for 30 minutes (Eppendorf Centrifuge 5402). Samples were stably frozen at −80 C until analysis is completed.
(§4) Analysis of malonyl CoA levels in liver and muscle tissue can be evaluated using the following methodology.
(§5) The method utilizes the following materials: Malonyl-CoA tetralithium salt and malonyl-^13C3-CoA trilithium salt which were purchased from Isotec (Miamisburg, Ohio, USA), sodium perchlorate (Sigma, cat no. 410241), trichloroacetic acid (ACROS, cat no. 42145), phosphoric acid (J. T. Baker, cat no. 0260-01), ammonium formate (Fluke, cat no. 17843), methanol (HPLC grade, J. T. Baker, cat no. 9093-33), and water (HPLC grade, J. T. Baker, 4218-03) were used to make the necessary mobile phases. Strata-X on-line solid phase extraction columns, 25 μm, 20 mm×2.0 mm I.D (cat no. 00M-S033-B0-CB) were obtained from Phenomenex (Torrance, Calif., USA). SunFire C18 reversed-phase columns, 3.5 μm, 100 mm×3.0 mm I.D. (cat no. 186002543) were purchased from Waters Corporation (Milford, Mass., USA).
(§6) This method may be performed utilizing the following equipment. Two-dimensional chromatography using an Agilent 1100 binary pump, an Agilent 1100 quaternary pump and two Valco Cheminert 6-port two position valves. Samples were introduced via a LEAP HTC PAL auto sampler with Peltier cooled stack maintained at 10° C. and a 20 μL sampling loop. The needle wash solutions for the autosampler are 10% trichloroacetic acid in water (w/v) for Wash 1 and 90:10 methanol:water for Wash 2. The analytical column (Sunfire) was maintained at 35° C. using a MicroTech Scientific Micro-LC Column Oven. The eluant was analyzed on an ABI Sciex API3000 triple quadrupole mass spectrometer with Turbo Ion Spray.
(§7) Two-dimensional chromatography was performed in parallel using distinct gradient elution conditions for on-line solid phase extraction and reversed-phase chromatography. The general design of the method was such that the first dimension was utilized for sample clean-up and capture of the analyte of interest followed by a brief coupling of both dimensions for elution from the first dimension onto the second dimension. The dimensions were subsequently uncoupled allowing for gradient elution of the analyte from the second dimension for quantification while simultaneously preparing the first dimension for the next sample in the sequence. […]

Assay [2] deals with malonyl-CoA levels in liver. Kind of assay: Acute in vivo assessment of ACC inhibition: malonyl-CoA levels in liver tissue. The settings on record: relative to chow-fed vehicle control group, % decrease +/- SEM. Also on record: species or system male Sprague-Dawley Rats. On the procedure: as §1, §2, §3, §4, §5, §6, §7

T1 sequence (O00763 whole entry): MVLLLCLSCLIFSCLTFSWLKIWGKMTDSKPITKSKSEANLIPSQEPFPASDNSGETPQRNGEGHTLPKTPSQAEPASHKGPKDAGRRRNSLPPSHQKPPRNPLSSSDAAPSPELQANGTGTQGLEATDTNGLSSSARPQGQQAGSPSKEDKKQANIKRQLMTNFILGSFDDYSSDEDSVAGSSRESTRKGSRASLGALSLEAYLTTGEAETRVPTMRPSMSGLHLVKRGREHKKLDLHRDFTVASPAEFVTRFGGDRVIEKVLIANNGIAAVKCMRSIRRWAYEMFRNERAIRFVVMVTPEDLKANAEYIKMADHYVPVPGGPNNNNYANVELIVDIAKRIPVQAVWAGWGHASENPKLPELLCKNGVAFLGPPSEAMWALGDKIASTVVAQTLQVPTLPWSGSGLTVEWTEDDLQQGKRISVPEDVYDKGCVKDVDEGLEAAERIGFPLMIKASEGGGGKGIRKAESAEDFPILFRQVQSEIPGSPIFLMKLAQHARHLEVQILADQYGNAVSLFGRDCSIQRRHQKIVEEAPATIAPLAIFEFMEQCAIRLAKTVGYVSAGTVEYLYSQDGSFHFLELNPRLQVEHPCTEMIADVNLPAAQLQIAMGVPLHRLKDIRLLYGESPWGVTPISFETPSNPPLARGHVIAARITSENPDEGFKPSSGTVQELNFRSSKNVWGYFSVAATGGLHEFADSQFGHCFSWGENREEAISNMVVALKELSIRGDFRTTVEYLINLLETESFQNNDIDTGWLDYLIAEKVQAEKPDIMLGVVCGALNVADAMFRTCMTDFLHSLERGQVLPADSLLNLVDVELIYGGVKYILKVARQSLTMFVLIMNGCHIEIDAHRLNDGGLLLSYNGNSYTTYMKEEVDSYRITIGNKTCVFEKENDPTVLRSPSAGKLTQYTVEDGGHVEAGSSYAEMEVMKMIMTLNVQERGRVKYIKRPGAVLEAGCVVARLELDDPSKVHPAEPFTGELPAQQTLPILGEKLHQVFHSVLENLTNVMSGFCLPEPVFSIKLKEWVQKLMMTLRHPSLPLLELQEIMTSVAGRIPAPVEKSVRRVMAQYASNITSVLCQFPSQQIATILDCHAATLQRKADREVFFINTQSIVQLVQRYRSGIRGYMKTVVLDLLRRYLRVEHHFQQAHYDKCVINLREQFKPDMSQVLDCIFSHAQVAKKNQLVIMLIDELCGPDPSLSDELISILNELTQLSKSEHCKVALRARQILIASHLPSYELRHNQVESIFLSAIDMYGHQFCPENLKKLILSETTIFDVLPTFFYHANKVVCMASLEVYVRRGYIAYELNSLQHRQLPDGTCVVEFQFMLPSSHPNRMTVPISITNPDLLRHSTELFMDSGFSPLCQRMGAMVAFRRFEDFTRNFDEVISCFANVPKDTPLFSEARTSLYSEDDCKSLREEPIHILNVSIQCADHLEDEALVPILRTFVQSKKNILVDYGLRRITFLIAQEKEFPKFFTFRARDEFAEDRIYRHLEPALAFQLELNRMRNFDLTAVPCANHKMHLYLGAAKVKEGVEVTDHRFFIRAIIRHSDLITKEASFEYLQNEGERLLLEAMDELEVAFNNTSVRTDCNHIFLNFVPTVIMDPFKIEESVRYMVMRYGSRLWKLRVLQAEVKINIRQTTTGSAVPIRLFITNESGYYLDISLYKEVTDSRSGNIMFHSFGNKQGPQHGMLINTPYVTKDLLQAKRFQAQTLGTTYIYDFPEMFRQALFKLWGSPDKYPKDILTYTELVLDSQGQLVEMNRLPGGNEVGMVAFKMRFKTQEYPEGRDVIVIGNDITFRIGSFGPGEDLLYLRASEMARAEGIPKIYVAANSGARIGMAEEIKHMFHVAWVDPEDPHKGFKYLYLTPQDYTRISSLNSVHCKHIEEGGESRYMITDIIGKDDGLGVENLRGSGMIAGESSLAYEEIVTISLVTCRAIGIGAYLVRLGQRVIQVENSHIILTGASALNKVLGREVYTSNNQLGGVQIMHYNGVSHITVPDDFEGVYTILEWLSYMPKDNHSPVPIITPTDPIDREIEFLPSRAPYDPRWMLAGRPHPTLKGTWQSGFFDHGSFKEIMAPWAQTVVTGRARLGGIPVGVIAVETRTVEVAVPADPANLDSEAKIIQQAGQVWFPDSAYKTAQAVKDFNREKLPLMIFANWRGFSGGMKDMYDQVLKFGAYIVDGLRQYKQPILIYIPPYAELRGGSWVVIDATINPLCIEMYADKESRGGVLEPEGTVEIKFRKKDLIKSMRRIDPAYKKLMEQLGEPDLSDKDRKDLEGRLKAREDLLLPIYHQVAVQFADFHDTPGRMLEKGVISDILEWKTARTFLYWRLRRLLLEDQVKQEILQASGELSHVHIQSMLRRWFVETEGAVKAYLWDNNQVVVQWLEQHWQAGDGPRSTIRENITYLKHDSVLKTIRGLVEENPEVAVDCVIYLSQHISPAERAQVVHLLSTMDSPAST

Turning to `CCCn1cc2c(n1)C(=O)CC1(CCN(C(=O)c3cc(C)c4[nH]ncc4c3)CC1)O2` [1.027], the 50% inhibitory concentration (IC50) at recombinant human ACC2 turned out to be 43 nM; against rat liver ACC, 48 nM.
Take `CCC(C)n1nc2c(c1C)OC1(CCN(C(=O)c3ccc4[nH]nc(C)c4c3)CC1)CC2=O` (stereo not drawn) [1.137]: the values for the IC50 at recombinant human ACC2 and against rat liver ACC were 9 nM and 17 nM, respectively.
For `Cc1n[nH]c2c(C)cc(C(=O)N3CCC4(CC3)CC(=O)c3nn(C5CCOC5)c(C)c3O4)cc12` (stereo not drawn) [1.015], in that order: 20 nM and 21 nM.
`CC(C)n1cc2c(n1)C(=O)CC1(CCN(C(=O)c3ccc4cn(C)nc4c3)CC1)O2` [5.002]: the IC50 on recombinant human ACC2 was found to be 147 nM; against rat liver ACC, 201 nM.
For `Cc1nc2c(C)cc(C(=O)N3CCC4(CC3)CC(=O)c3nn(C(C)(C)C)cc3O4)cc2[nH]1` [3.003], in that order: 4 nM and 10 nM.
For `Cc1cc(C(=O)N2CCC3(CC2)CC(=O)c2nn(C(C)C)cc2O3)cc2cn[nH]c12` [1.022], in that order: 28 nM and 22 nM.
The corresponding values for `CCOc1cc(C(=O)N2CCC3(CC2)CC(=O)c2nn(C(C)C)cc2O3)cc2cn[nH]c12` [1.123] are 14 nM and 16 nM.
As for `Cc1c(C(=O)N2CCC3(CC2)CC(=O)c2nn(C(C)(C)C)cc2O3)ccc2[nH]ncc12` [1.147], the IC50 on recombinant human ACC2 was determined as 49 nM; at rat liver ACC, 15 nM.
For `COc1ccc2cc(C(=O)N3CCC4(CC3)CC(=O)c3nn(C(C)(C)C)cc3O4)ccc2c1` [6.004], in that order: 38 nM and 77 nM.
The corresponding values for `CCC(C)n1cc2c(n1)C(=O)CC1(CCN(C(=O)c3ccc4[nH]nc(C)c4c3)CC1)O2` (stereo not drawn) [1.141] are 19 nM and 32 nM.
For `CCn1nc2c(c1C)OC1(CCN(C(=O)c3cc(C)c4[nH]ncc4c3)CC1)CC2=O` [1.023], in that order: 31 nM and 28 nM.
As to `Cc1cc(C(=O)N2CCC3(CC2)CC(=O)c2nn(C4CCC4)cc2O3)cc2cn[nH]c12` [1.039], the IC50 on recombinant human ACC2 was 13 nM; against rat liver ACC, 15 nM.
The corresponding values for `CCOc1cc(C(=O)N2CCC3(CC2)CC(=O)c2nn(CC)c(C)c2O3)cc2c(CC)n[nH]c12` [1.119] are 18 nM and 13 nM.
On to `Cc1cc(C(=O)N2CCC3(CC2)CC(=O)c2nn(C4CCCC4)cc2O3)cc2cn[nH]c12` [1.038], for which the values for the IC50 at recombinant human ACC2 and on rat liver ACC were 9 nM and 14 nM, respectively.
For `CC(C)(C)n1cc2c(n1)C(=O)CC1(CCN(C(=O)c3ccc4ncsc4c3)CC1)O2` [10.002], in that order: 25 nM and 46 nM.
Take `CC(C)(C)n1cc2c(n1)C(=O)CC1(CCN(C(=O)c3ccc4[nH]ncc4c3)CC1)O2` [1.074]: half-maximal inhibition against rat liver ACC (IC50) required 17 nM. Moreover, the “Percent decrease in Muscle Malonyl-CoA (quadriceps)” value in assay [1] (dose 1 mg/kg) is 2.34 (5.44) %; in assay [1] (dose 3 mg/kg), 24.42 (6.83) %; in assay [1] (dose 10 mg/kg), 49.00 (2.40) %; in assay [1] (dose 30 mg/kg), 57.06 (2.04) %. In addition, the “Percent decrease in Liver Malonyl-CoA” value was 34.97 (2.59) % in assay [2] (dose 1 mg/kg), 53.97 (1.19) % in assay [2] (dose 3 mg/kg), 70.74 (3.49) % in assay [2] (dose 10 mg/kg) and 63.60 (3.57) % in assay [2] (dose 30 mg/kg).
